One test relates to M14. Kind of test: Tested for cytotoxicity against M14 melanoma. Type of test: functional, Homo sapiens.
Settings: not given
Turning to `CCc1ccc(NCc2cc(OC)c(OC)c(OC)c2)cc1`, the GI50 stood at 437 nM.
Still for that read-out and setting: to `CCOc1ccc(NCc2cc(OC)c(OC)c(OC)c2)cc1` [listing 1 of 2 here] belongs 532 nM.
Same read-out and setting: to `COc1cc(CNc2ccc(SC)cc2)cc(OC)c1OC` belongs 4840 nM.

The same test, now with this note: Homo sapiens, M14.
Regarding `COc1ccc(NCc2cc(OC)c(OC)c(OC)c2)cc1`, the GI50 was 2380 nM. This lies in the single-digit micromolar range.
On the same count and under the same terms, to `COc1cc(CNc2ccc(C)cc2)cc(OC)c1OC` belongs 150 nM; to `CCc1ccc(/N=C/c2cc(OC)c(OC)c(OC)c2)cc1`, above 100000 nM; to `CCCc1ccc(/N=C/c2cc(OC)c(OC)c(OC)c2)cc1`, above 100000 nM.
The molecule `CCOc1ccc(NCc2cc(OC)c(OC)c(OC)c2)cc1` [listing 2 of 2 here] showed a GI50 of 403 nM.

For a further test, the target named is Tubulin (Bos taurus, UniProt Q6B856+Q862F3). Kind of test: In vitro inhibition of bovine electrophoretically homogeneous tubulin polymerization. Format: functional.
Sequence of Tubulin (Q6B856 whole entry): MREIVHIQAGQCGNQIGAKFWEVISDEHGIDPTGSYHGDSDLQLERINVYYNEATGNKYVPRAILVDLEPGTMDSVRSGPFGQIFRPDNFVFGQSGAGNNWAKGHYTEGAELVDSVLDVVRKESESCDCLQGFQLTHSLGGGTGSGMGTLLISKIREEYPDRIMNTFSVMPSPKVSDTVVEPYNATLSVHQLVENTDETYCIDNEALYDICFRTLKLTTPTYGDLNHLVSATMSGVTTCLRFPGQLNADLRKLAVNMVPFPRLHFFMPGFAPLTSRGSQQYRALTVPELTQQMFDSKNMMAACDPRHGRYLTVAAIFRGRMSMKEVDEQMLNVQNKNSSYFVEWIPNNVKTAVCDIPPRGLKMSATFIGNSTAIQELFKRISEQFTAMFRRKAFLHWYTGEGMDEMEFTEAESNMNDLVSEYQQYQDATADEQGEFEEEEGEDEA
Sequence of Tubulin (Q862F3 whole entry): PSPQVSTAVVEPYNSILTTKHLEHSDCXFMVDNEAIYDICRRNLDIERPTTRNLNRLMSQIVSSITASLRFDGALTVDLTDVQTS
Settings: not given
Consider `COc1ccc(NCc2cc(OC)c(OC)c(OC)c2)cc1`, for which the IC50 came out at 8900 nM. This lies in the single-digit micromolar range.
Still for that read-out and setting: to `COc1cc(CNc2ccc(C)cc2)cc(OC)c1OC` belongs 6000 nM; to `CCc1ccc(NCc2cc(OC)c(OC)c(OC)c2)cc1`, 7200 nM.
`CCc1ccc(/N=C/c2cc(OC)c(OC)c(OC)c2)cc1` had an IC50 above 40000 nM.
For the molecule `CCCc1ccc(/N=C/c2cc(OC)c(OC)c(OC)c2)cc1`, the IC50 was above 40000 nM.
Same read-out and setting: in the case of `CCOc1ccc(NCc2cc(OC)c(OC)c(OC)c2)cc1` [listing 2 of 2 here] it was 12000 nM; in that of `CCOc1ccc(NCc2cc(OC)c(OC)c(OC)c2)cc1` [listing 1 of 2 here], 11000 nM; in that of `COc1cc(CNc2ccc(SC)cc2)cc(OC)c1OC`, 16000 nM.

The subject of the next test is DMS-273. Kind of test: Tested for cytotoxicity against DMS 273 (small-cell lung cancer) cell line.
Settings: not given
Format: functional, Homo sapiens.
`COc1ccc(NCc2cc(OC)c(OC)c(OC)c2)cc1` gave a GI50 of 534 nM.
On to `CCc1ccc(NCc2cc(OC)c(OC)c(OC)c2)cc1`, for which the GI50 was determined as 818 nM.
Still for that read-out and setting: to `CCOc1ccc(NCc2cc(OC)c(OC)c(OC)c2)cc1` [listing 2 of 2 here] belongs 296 nM; to `CCOc1ccc(NCc2cc(OC)c(OC)c(OC)c2)cc1` [listing 1 of 2 here], 961 nM.
On the same count and under the same terms, in the case of `COc1cc(CNc2ccc(SC)cc2)cc(OC)c1OC` it was 4910 nM.

Staying with this test, now noted: Homo sapiens, DMS-273.
Molecule `COc1cc(CNc2ccc(C)cc2)cc(OC)c1OC` returned a GI50 of 92.6 nM. This lies in the double-digit nanomolar range.
On the same count and under the same terms, in the case of `CCc1ccc(/N=C/c2cc(OC)c(OC)c(OC)c2)cc1` it was above 100000 nM.
The molecule `CCCc1ccc(/N=C/c2cc(OC)c(OC)c(OC)c2)cc1` yielded a GI50 above 100000 nM.

A further test has as its system CAKI-1. Kind of test: Tested for cytotoxicity against CAKI-1 renal cancer. Type of test: functional, Homo sapiens.
Settings: not given
The molecule `COc1ccc(NCc2cc(OC)c(OC)c(OC)c2)cc1` showed a GI50 of 2500 nM.
On the same count and under the same terms, to `CCOc1ccc(NCc2cc(OC)c(OC)c(OC)c2)cc1` [listing 1 of 2 here] belongs 1050 nM; to `COc1cc(CNc2ccc(SC)cc2)cc(OC)c1OC`, 16300 nM.

Still in this test, the particulars now being: Homo sapiens, CAKI-1.
`COc1cc(CNc2ccc(C)cc2)cc(OC)c1OC` gave a GI50 of 192 nM.
The same measure, in the same setting: to `CCc1ccc(/N=C/c2cc(OC)c(OC)c(OC)c2)cc1` belongs above 100000 nM; to `CCCc1ccc(/N=C/c2cc(OC)c(OC)c(OC)c2)cc1`, above 100000 nM.
On the same count and under the same terms, in the case of `CCOc1ccc(NCc2cc(OC)c(OC)c(OC)c2)cc1` [listing 2 of 2 here] it was 2040 nM.

Another test has as its system HL-60. The test can be described thus: Tested for cytotoxicity against human cancer cell lines HL-60(TB) (leukemia) cell line. Format: functional.
Settings: not given
The molecule `COc1ccc(NCc2cc(OC)c(OC)c(OC)c2)cc1` had a GI50 of 834 nM.
On the same count and under the same terms, to `COc1cc(CNc2ccc(C)cc2)cc(OC)c1OC` belongs 122 nM.
Same read-out and setting: to `CCc1ccc(NCc2cc(OC)c(OC)c(OC)c2)cc1` belongs 245 nM; to `CCOc1ccc(NCc2cc(OC)c(OC)c(OC)c2)cc1` [listing 1 of 2 here], 448 nM; to `COc1cc(CNc2ccc(SC)cc2)cc(OC)c1OC`, 3290 nM.

The same test, now with this note: Homo sapiens, HL-60.
In turn, `CCCc1ccc(/N=C/c2cc(OC)c(OC)c(OC)c2)cc1` registered a GI50 of 22600 nM.
The same measure, in the same setting: to `CCOc1ccc(NCc2cc(OC)c(OC)c(OC)c2)cc1` [listing 2 of 2 here] belongs 296 nM.

In the next test the test system is COLO 205. The test can be described thus: Tested for cytotoxicity against COLO 205 (colon cancer) cell line. Format: functional, Homo sapiens.
Settings: not given
As for `COc1ccc(NCc2cc(OC)c(OC)c(OC)c2)cc1`, growth was halved (GI50) at 1660 nM.
`CCc1ccc(NCc2cc(OC)c(OC)c(OC)c2)cc1` showed a GI50 of 352 nM.
Still for that read-out and setting: in the case of `CCOc1ccc(NCc2cc(OC)c(OC)c(OC)c2)cc1` [listing 1 of 2 here] it was 538 nM; in that of `COc1cc(CNc2ccc(SC)cc2)cc(OC)c1OC`, 3600 nM.

The same test, now with this note: Homo sapiens, COLO 205.
Molecule `COc1cc(CNc2ccc(C)cc2)cc(OC)c1OC` returned a GI50 of 152 nM.
With `CCCc1ccc(/N=C/c2cc(OC)c(OC)c(OC)c2)cc1`, the GI50 was above 100000 nM.
Still for that read-out and setting: to `CCOc1ccc(NCc2cc(OC)c(OC)c(OC)c2)cc1` [listing 2 of 2 here] belongs 432 nM.

For the next test, the system named is NCI-H522. The test can be described thus: Tested for cytotoxicity against NCI-H522 (non-small-cell lung cancer) cell line. Type of test: functional, Homo sapiens.
Settings: not given
Molecule `COc1ccc(NCc2cc(OC)c(OC)c(OC)c2)cc1` yielded a GI50 of 2760 nM.
Still for that read-out and setting: in the case of `CCc1ccc(NCc2cc(OC)c(OC)c(OC)c2)cc1` it was 371 nM; in that of `CCOc1ccc(NCc2cc(OC)c(OC)c(OC)c2)cc1` [listing 1 of 2 here], 574 nM.
Still for that read-out and setting: to `COc1cc(CNc2ccc(SC)cc2)cc(OC)c1OC` belongs 2950 nM.

Still in this test, the particulars now being: Homo sapiens, NCI-H522.
In turn, `CCc1ccc(/N=C/c2cc(OC)c(OC)c(OC)c2)cc1` came in with a GI50 above 100000 nM.
As for `CCCc1ccc(/N=C/c2cc(OC)c(OC)c(OC)c2)cc1`, the GI50 is above 100000 nM.
On the same count and under the same terms, in the case of `CCOc1ccc(NCc2cc(OC)c(OC)c(OC)c2)cc1` [listing 2 of 2 here] it was 380 nM.

Another test relates to OVCAR-3. Kind of test: Tested for cytotoxicity against OVCAR-3 (ovarian cancer) cell line.
Settings: not given
Format: functional, Homo sapiens.
`COc1ccc(NCc2cc(OC)c(OC)c(OC)c2)cc1` showed a GI50 of 1960 nM.
Molecule `CCc1ccc(NCc2cc(OC)c(OC)c(OC)c2)cc1` returned a GI50 of 405 nM.
`CCOc1ccc(NCc2cc(OC)c(OC)c(OC)c2)cc1` [listing 1 of 2 here] gave a GI50 of 464 nM.
On the same count and under the same terms, in the case of `COc1cc(CNc2ccc(SC)cc2)cc(OC)c1OC` it was 4850 nM.

The test is the same for the next values; noted with them: Homo sapiens, OVCAR-3.
The molecule `COc1cc(CNc2ccc(C)cc2)cc(OC)c1OC` displayed a GI50 of 184 nM.
On the same count and under the same terms, in the case of `CCc1ccc(/N=C/c2cc(OC)c(OC)c(OC)c2)cc1` it was above 100000 nM; in that of `CCCc1ccc(/N=C/c2cc(OC)c(OC)c(OC)c2)cc1`, above 100000 nM.
Same read-out and setting: to `CCOc1ccc(NCc2cc(OC)c(OC)c(OC)c2)cc1` [listing 2 of 2 here] belongs 340 nM.

In another test the test system is SF-295. Kind of test: In vitro cytotoxicity against SF-295 (CNS cancer) cell line.
Settings: not given
Format: functional, Homo sapiens.
The molecule `COc1ccc(NCc2cc(OC)c(OC)c(OC)c2)cc1` yielded a GI50 of 2320 nM.
Still for that read-out and setting: in the case of `CCc1ccc(NCc2cc(OC)c(OC)c(OC)c2)cc1` it was 339 nM; in that of `CCOc1ccc(NCc2cc(OC)c(OC)c(OC)c2)cc1` [listing 1 of 2 here], 418 nM.
On the same count and under the same terms, to `COc1cc(CNc2ccc(SC)cc2)cc(OC)c1OC` belongs 3410 nM.

The same test, now with this note: Homo sapiens, SF-295.
As to `COc1cc(CNc2ccc(C)cc2)cc(OC)c1OC`, the GI50 stood at 163 nM.
Same read-out and setting: in the case of `CCc1ccc(/N=C/c2cc(OC)c(OC)c(OC)c2)cc1` it was above 100000 nM.
Turning to `CCCc1ccc(/N=C/c2cc(OC)c(OC)c(OC)c2)cc1`, the GI50 was above 100000 nM.
Still for that read-out and setting: to `CCOc1ccc(NCc2cc(OC)c(OC)c(OC)c2)cc1` [listing 2 of 2 here] belongs 274 nM.

In general, GI50 refers to the concentration that inhibits growth by half. The term IC50 denotes the midpoint of a concentration-inhibition curve. A high value points to weaker potency in that assay.

The values above are taken from ChEMBL document CHEMBL1126805, “Synthesis and evaluation of a series of benzylaniline hydrochlorides as potential cytotoxic and antimitotic agents acting by inhibition of tubulin polymerization” (J Med Chem, 1993).
